Results on 14 molecules are retold here after US20110301170A1, “Inhibitors of JNK” (priority 2010, published 2011).

Where a name gives a salt, the structure may show the parent alone.

The subject of the first data set is T1, JNK.
T1 construct: Human JNK2α2 assay contains 1 nM enzyme; Human JNK1α1 assay contains 2 nM enzyme
Briefly: JNK Assay in vitro (phosphorylation of GST-ATF2 with [γ-33P] ATP). Type of data set: biochemical, Human. The conditions noted are these: IC50 affinity values; JNK isoform (JNK1α1, JNK2α2 or JNK3) not stated; Km concentrations of ATP and substrate; 30° C. for 30 min. As to the method: JNK activity was measured by phosphorylation of GST-ATF2 (19-96) with [-^33P] ATP. […] Human JNK2α2 assay contains 1 nM enzyme, 1 μM ATF2, 8 μM ATP with 1 uCi [γ-^33P] ATP. Human JNK1α1 assay contains 2 nM enzyme, 1 μM ATF2, 6 μM ATP with 1 μCi [γ-^33P] ATP. Human JNK3 (Upstate Biotech #14-501M) assay contains 2 nM enzyme, 1 μM ATF2, 4 μM ATP with 1 μCi [γ-^33P] ATP. The enzyme assay was carried out in the presence or absence of several compound concentrations. JNK and compound were pre-incubated for 10 min., followed by initiation of the enzymatic reaction by adding ATP and the substrate. The reaction mixture was incubated at 30° C. for 30 min. At the end of incubation, the reaction was terminated by transferring 25 μl of the reaction mixture to 150 μl of 10% glutathione Sepharose® slurry (Amersham #27-4574-01) containing 135 mM EDTA. The reaction product was captured on the affinity resin, and washed on a filtration plate (Millipore, MABVNOB50) with phosphate buffered saline for six times to remove free radionucleotide. The incorporation of ^33P into ATF2 was quantified on a microplate scintillation counter (Packard Topcount). Compound inhibition potency on JNK was measured by IC50 value generated from ten concentration inhibition curves fitted into the 3-parameter model: % inhibition=Maximum/(1+(IC50/[Inhibitor])^slope). Data were analyzed on Microsoft Excel for parameter estimation.
With `Cc1nnc2n1CCN(C(=O)[C@H]1CC[C@H](Nc3nccc(-n4ncc5c(C(F)(F)F)cccc54)n3)CC1)C2` [Compound 30, (3-Methyl-5,6-dihydro-8H-[1,2,4]triazolo[4,3-a]pyrazin-7-yl)-{4-[4-(4-trifluoromethyl-indazol-1-yl)-pyrimidin-2-ylamino]-cyclohexyl}-methanone], the midpoint of inhibition, the IC50, lay at 0.165 µM. In other words, the sub-micromolar range.
Take `O=C([C@H]1CC[C@H](Nc2nccc(-n3ncc4c(C(F)(F)F)cccc43)n2)CC1)N1CCn2cnnc2C1` [Compound 29, (5,6-Dihydro-8H-[1,2,4]triazolo[4,3-a]pyrazin-7-yl)-{4-[4-(4-trifluoromethyl-indazol-1-yl)-pyrimidin-2-ylamino]-cyclohexyl}-methanone]: half-maximal inhibition (IC50) required 0.135 µM.

Tested on in the next data set: not given
Experiment: not given
Settings: not given
Turning to `Cc1nnc2n1CCN(C(=O)[C@H]1CC[C@H](Nc3nccc(-n4nnc5c(OC(F)F)cccc54)n3)CC1)C2` (as salt: HCl) [Compound 45, {4-[4-(4-Difluoromethoxy-benzotriazol-1-yl)-pyrimidin-2-ylamino]-cyclohexyl}-(3-methyl-5,6-dihydro-8H-[1,2,4]triazolo[4,3-a]pyrazin-7-yl)-methanone], the melting point – broadly, the temperature, or range, at which the solid turns liquid – lay within 190 to 195 °C.
Same read-out and setting: for `Cc1nnc2n1CCN(C(=O)[C@H]1CC[C@H](Nc3nccc(-n4ccc5c(OCCCS(C)(=O)=O)cccc54)n3)CC1)C2` (as salt: HCl) [Compound 23, (4-{4-[4-(3-Methanesulfonyl-propoxy)-indol-1-yl]-pyrimidin-2-ylamino}-cyclohexyl)-(3-methyl-5,6-dihydro-8H-[1,2,4]triazolo[4,3-a]pyrazin-7-yl)-methanone] the value was 178 to 180 °C; for `C=C(C)c1cccc2c1ccn2-c1ccnc(N[C@H]2CC[C@H](C(=O)N3CCn4c(C)nnc4C3)CC2)n1` (as salt: HCl) [Compound 26, {4-[4-(4-Isopropenyl-indol-1-yl)-pyrimidin-2-ylamino]-cyclohexyl}-(3-methyl-5,6-dihydro-8H-[1,2,4]triazolo[4,3-a]pyrazin-7-yl)-methanone], 216.6 to 221 °C; for `Cc1cccc2c1nnn2-c1ccnc(N[C@H]2CC[C@H](C(=O)N3CCn4cc(C(F)(F)F)nc4C3)CC2)n1` (as salt: HCl) [Compound 33, {4-[4-(4-Methyl-benzotriazol-1-yl)-pyrimidin-2-ylamino]-cyclohexyl}-(2-trifluoromethyl-5,6-dihydro-8H-imidazo[1,2-a]pyrazin-7-yl)-methanone], 258 to 260 °C.
The molecule `Cc1nnc2n1CCN(C(=O)[C@H]1CC[C@H](Nc3nccc(-n4nnc5c(C(C)(C)O)cccc54)n3)CC1)C2` (as salt: HCl) [Compound 39, (4-{4-[4-(1-Hydroxy-1-methyl-ethyl)-benzotriazol-1-yl]-pyrimidin-2-ylamino}-cyclohexyl)-(3-methyl-5,6-dihydro-8H-[1,2,4]triazolo[4,3-a]pyrazin-7-yl)-methanone] showed a melting point of 145 to 150 °C.
Same read-out and setting: for `O=C([C@H]1CC[C@H](Nc2nccc(-n3nnc4c(OC(F)F)cccc43)n2)CC1)N1CCn2cnnc2C1` (as salt: HCl) [Compound 44, {4-[4-(4-Dilfuoromethoxy-benzotriazol-1-yl)-pyrimidin-2-ylamino]-cyclohexyl}-(5,6-dihydro-8H-[1,2,4]triazolo[4,3-a]pyrazin-7-yl)-methanone] the value was 185 to 190 °C.
`C=C(C)c1cccc2c1ccn2-c1ccnc(N[C@H]2CC[C@H](C(=O)N3CCn4cnnc4C3)CC2)n1` (as salt: HCl) [Compound 25, (5,6-Dihydro-8H-[1,2,4]triazolo[4,3-a]pyrazin-7-yl)-{4-[4-(4-isopropenyl-indol-1-yl)-pyrimidin-2-ylamino]-cyclohexyl}-methanone] yielded a melting point of 186 to 188 °C.
Consider `Cc1cnc2n1CCN(C(=O)[C@H]1CC[C@H](Nc3nccc(-n4ccc5c(OC(F)F)cccc54)n3)CC1)C2` (as salt: HCl) [Compound 11, {4-[4-(4-Difluoromethoxy-indol-1-yl)-pyrimidin-2-ylamino]-cyclohexyl}-(3-methyl-5,6-dihydro-8H-imidazo[1,2-a]pyrazin-7-yl)-methanone], for which the melting point was in the range of 190 to 195 °C.
`Cc1cccc2c1nnn2-c1ccnc(N[C@H]2CC[C@H](C(=O)N3CCn4c(C)nnc4C3)CC2)n1` (as salt: HCl) [Compound 35, {4-[4-(4-Methyl-benzotriazol-1-yl)-pyrimidin-2-ylamino]-cyclohexyl}-(3-methyl-5,6-dihydro-8H-[1,2,4]triazolo[4,3-a]pyrazin-7-yl)-methanone] registered a melting point of 246 to 248 °C.
Same read-out and setting: for `Cc1cccc2c1nnn2-c1ccnc(N[C@H]2CC[C@H](C(=O)N3CCn4cnnc4C3)CC2)n1` (as salt: HCl) [Compound 34, (5,6-Dihydro-8H-[1,2,4]triazolo[4,3-a]pyrazin-7-yl)-{4-[4-(4-methyl-benzotriazol-1-yl)-pyrimidin-2-ylamino]-cyclohexyl}-methanone] the value was 236 to 238 °C.
In turn, `Cc1nnc2n1CCN(C(=O)[C@H]1CC[C@H](Nc3nccc(-n4ncc5c(C(F)(F)F)cccc54)n3)CC1)C2` [Compound 30, (3-Methyl-5,6-dihydro-8H-[1,2,4]triazolo[4,3-a]pyrazin-7-yl)-{4-[4-(4-trifluoromethyl-indazol-1-yl)-pyrimidin-2-ylamino]-cyclohexyl}-methanone] displayed a melting point of 258 to 260 °C.
The same measure, in the same setting: next, `O=C([C@H]1CC[C@@H](Nc2nccc(-n3nnc4c(C(F)(F)F)cccc43)n2)CC1)N1CCn2cnnc2C1` (as salt: HCl) [Compound 37, (5,6-Dihydro-8H-[1,2,4]triazolo[4,3-a]pyrazin-7-yl)-{4-[4-(4-trifluoromethyl-benzotriazol-1-yl)-pyrimidin-2-ylamino]-cyclohexyl}-methanone]: 200 to 210 °C.
`O=C([C@H]1CC[C@H](Nc2nccc(-n3ccc4c(OCC5CCS(=O)(=O)C5)cccc43)n2)CC1)N1CCn2cnnc2C1` (stereo partly shown) (as salt: HCl) [Compound 24, (5,6-Dihydro-8H-[1,2,4]triazolo[4,3-a]pyrazin-7-yl)-(4-{4-[4-(1,1-dioxo-tetrahydro-1λ6-thiophen-3-ylmethoxy)-indol-1-yl]-pyrimidin-2-ylamino}-cyclohexyl)-methanone] returned a melting point of 215 to 220 °C.
The same measure, in the same setting: next, `O=C([C@H]1CC[C@H](Nc2nccc(-n3ncc4c(C(F)(F)F)cccc43)n2)CC1)N1CCn2cnnc2C1` [Compound 29, (5,6-Dihydro-8H-[1,2,4]triazolo[4,3-a]pyrazin-7-yl)-{4-[4-(4-trifluoromethyl-indazol-1-yl)-pyrimidin-2-ylamino]-cyclohexyl}-methanone]: 223 to 227 °C.
